From patent publication US10947227B2, “Tricyclic heterocyclic compounds as sting activators” (Incyte Corporation, priority 2018, dated 2021)
pEC50: −log10 of the molar value.

Test system: IRF3 activation in THP-1 Dual Cells
Assay: IRF3 activation assay in THP-1 Dual Cells (QUANTI-Blue readout)
Type: cell-based
Settings: Homo sapiens, THP1-Dual, 24 h
Method: THP-1 Dual Cells (Invivogen) were maintained in RPMI1640 medium with addition of 10% FBS, 100 μg/ml zeocin, 10 μg/ml blasticidin. Cells were added in a 96-well flat bottom assay plate at 100,000 per well in 100 μL complete RPMI medium. Test compounds were prepared by serial dilution in complete RPMI medium and 100 μL test compounds were transferred to each corresponding well. The assay plate was incubated at 37° C., 5% CO2 for 24 hours. After the overnight incubation, 20 μL of the culture supernatants were collected, followed by addition of 180 μL of QUANTI-Blue (Invivogen) to assess IRF3 activity. The amount of IRF3 activation was assessed by reading the absorbance at 620-655 nm with a microplate reader 2 hours later. The culture supernatant from the untreated THP-1 cells was used as the negative control. To determine the NF-κB activation, another 20 μL of culture supernatant were transferred to a 96-well white plate, followed by addition of 50 μL of Quanti-Luc™ assay solution (Invivogen). The amount of NF-κB activation induced by the test compounds were determined by the luminescence above the untreated control. EC50 determination was performed by fitting the curve of percent control activity versus the log of the compound concentration using the GraphPad Prism 6.0 software.

| SMILES | pEC50 (Table 2, 24 hours incubation) | pEC50 (Table 1, 24 hours incubation) |
| --- | --- | --- |
| CCn1nc(C)cc1C(=O)Nc1nc2cc(C(N)=O)cc(OCCCNC(=O)OCC(=O)O)c2n1C/C=C/Cn1c2nc(-c3cc(C)nn3CC)ncc2c2cc(C(N)=O)cc(OCCCOC)c21 [Example 40, (E)-2-(((3-((5-carbamoyl-1-(4-(6-carbamoyl-2-(1-ethyl-3-methyl-1H-pyrazol-5-yl)-8-(3-methoxypropoxy)-9H-pyrimido[4,5-b]indol-9-yl)but-2-en-1-yl)-2-(1-ethyl-3-methyl-1H-pyrazole-5-carboxamido)-1H-benzo[d]imidazol-7-yl)oxy)propyl)carbamoyl)oxy)acetic Acid] | > 7.30 |  |
| CCn1nc(C)cc1C(=O)Nc1nc2cc(C(N)=O)cc(O)c2n1C/C=C/Cn1c2nc(-c3cc(C)nn3CC)ncc2c2cc(C(N)=O)cc(OCCCOC)c21 [Example 28, (E)-9-(4-(5-carbamoyl-2-(1-ethyl-3-methyl-1H-pyrazole-5-carboxamido)-7-hydroxy-1H-benzo[d]imidazol-1-yl)but-2-en-1-yl)-2-(1-ethyl-3-methyl-1H-pyrazol-5-yl)-8-(3-methoxypropoxy)-9H-pyrimido[4,5-b]indole-6-carboxamide] | > 7.30 | > 6.70 |
| CCn1nc(C)cc1C(=O)Nc1nc2cc(C(N)=O)cc(OC)c2n1C/C=C/Cn1c2nc(-c3cc(C)nn3CC)ncc2c2cc(C(N)=O)cc(OCCCNC(=O)CCCC(=O)O)c21 [Example 46, (E)-5-(3-(6-carbamoyl-9-(4-(5-carbamoyl-2-(1-ethyl-3-methyl-1H-pyrazole-5-carboxamido)-7-methoxy-1H-benzo[d]imidazol-1-yl)but-2-enyl)-2-(1-ethyl-3-methyl-1H-pyrazol-5-yl)-9H-pyrimido[4,5-b]indol-8-yloxy)propylamino)-5-oxopentanoic Acid] | > 7.30 |  |
| CCn1nc(C)cc1C(=O)Nc1nc2cc(C(N)=O)cc(OCCCN3CCOCC3)c2n1C/C=C/Cn1c2nc(-c3cc(C)nn3CC)ncc2c2cc(C(N)=O)cc(OCCCOC)c21 [Example 27, (E)-9-(4-(5-carbamoyl-2-(1-ethyl-3-methyl-1H-pyrazole-5-carboxamido)-7-(3-morpholinopropoxy)-1H-benzo[d]imidazol-1-yl)but-2-en-1-yl)-2-(1-ethyl-3-methyl-1H-pyrazol-5-yl)-8-(3-methoxypropoxy)-9H-pyrimido[4,5-b]indole-6-carboxamide] | > 7.30 | > 6.70 |
| CCn1nc(C)cc1C(=O)Nc1nc2cc(C(N)=O)cc(OCCCO)c2n1C/C=C/Cn1c2ccc(C(N)=O)cc2c2cnc(-c3cc(C)nn3CC)nc21 [Example 18, (E)-9-(4-(5-carbamoyl-2-(1-ethyl-3-methyl-1H-pyrazole-5-carboxamido)-7-(3-hydroxypropoxy)-1H-benzo[d]imidazol-1-yl)but-2-en-1-yl)-2-(1-ethyl-3-methyl-1H-pyrazol-5-yl)-9H-pyrimido[4,5-b]indole-6-carboxamide] | > 7.30 | > 6.70 |
| CCn1nc(C)cc1C(=O)Nc1nc2cc(C(N)=O)cc(C)c2n1C/C=C/Cn1c2ccc(C(N)=O)cc2c2cnc(-c3cc(C)nn3CC)nc21 [Example 1, (E)-9-(4-(5-carbamoyl-2-(1-ethyl-3-methyl-1H-pyrazole-5-carboxamido)-7-methyl-1H-benzo[d]imidazol-1-yl)but-2-enyl)-2-(1-ethyl-3-methyl-1H-pyrazol-5-yl)-9H-pyrimido[4,5-b]indole-6-carboxamide] | 6.70 to 7.30 | > 6.00 |
| CCn1nc(C)cc1C(=O)Nc1nc2cc(C(N)=O)cc(OCCCOC(=O)NCCC(=O)O)c2n1C/C=C/Cn1c2nc(-c3cc(C)nn3CC)ncc2c2cc(C(N)=O)cc(OCCCOC)c21 [Example 43, (E)-3-(((3-((5-carbamoyl-1-(4-(6-carbamoyl-2-(1-ethyl-3-methyl-1H-pyrazol-5-yl)-8-(3-methoxypropoxy)-9H-pyrimido[4,5-b]indol-9-yl)but-2-en-1-yl)-2-(1-ethyl-3-methyl-1H-pyrazole-5-carboxamido)-1H-benzo[d]imidazol-7-yl)oxy)propoxy)carbonyl)amino)propanoic Acid] | > 7.30 |  |
| CCn1nc(C)cc1C(=O)Nc1nc2cc(C(N)=O)cc(OCCCNC(=O)[C@H](CC(=O)O)NC(=O)[C@H](CC(=O)O)NC(=O)[C@H](CCCNC(=N)N)NC(=O)[C@@H](N)CC(=O)O)c2n1C/C=C/Cn1c2nc(-c3cc(C)nn3CC)ncc2c2cc(C(N)=O)cc(OCCCOC)c21 [Example 37, (6S,9S,12S,15S)-15-amino-1-((5-carbamoyl-1-((E)-4-(6-carbamoyl-2-(1-ethyl-3-methyl-1H-pyrazol-5-yl)-8-(3-methoxypropoxy)-9H-pyrimido[4,5-b]indol-9-yl)but-2-en-1-yl)-2-(1-ethyl-3-methyl-1H-pyrazole-5-carboxamido)-1H-benzo[d]imidazol-7-yl)oxy)-6,9-bis(carboxymethyl)-12-(3-guanidinopropyl)-5,8,11,14-tetraoxo-4,7,10,13-tetraazaheptadecan-17-oic Acid] | 6.30 to 6.70 |  |
| CCn1nc(C)cc1C(=O)Nc1nc2cc(C(N)=O)cc(OCCCOC(=O)c3cc(C)nn3CC)c2n1C/C=C/Cn1c2nc(-c3cc(C)nn3CC)ncc2c2cc(C(N)=O)cc(OCCCN3CCOCC3)c21 [Example 19, (E)-3-((5-carbamoyl-1-(4-(6-carbamoyl-2-(1-ethyl-3-methyl-1H-pyrazol-5-yl)-8-(3-morpholinopropoxy)-9H-pyrimido[4,5-b]indol-9-yl)but-2-en-1-yl)-2-(1-ethyl-3-methyl-1H-pyrazole-5-carboxamido)-1H-benzo[d]imidazol-7-yl)oxy)propyl 1-ethyl-3-methyl-1H-pyrazole-5-carboxylate] | > 7.30 | > 6.70 |
| CCn1nc(C)cc1C(=O)Nc1nc2cc(C(N)=O)cc(OCCCOC(=O)NCCC(=O)O)c2n1C/C=C/Cn1c2nc(-c3cc(C)nn3CC)ncc2c2cc(C(N)=O)cc(OCCOCCOCCC(=O)O)c21 [Example 58, (E)-3-(((3-((5-carbamoyl-1-(4-(6-carbamoyl-8-(2-(2-(2-carboxyethoxy)ethoxy)ethoxy)-2-(1-ethyl-3-methyl-1H-pyrazol-5-yl)-9H-pyrimido[4,5-b]indol-9-yl)but-2-en-1-yl)-2-(1-ethyl-3-methyl-1H-pyrazole-5-carboxamido)-1H-benzo[d]imidazol-7-yl)oxy)propoxy)carbonyl)amino)propanoic Acid] | 6.30 to 6.70 |  |

Further lines, results first:

| pEC50 (Table 2, 24 hours incubation) | pEC50 (Table 1, 24 hours incubation) | SMILES |
| --- | --- | --- |
| 6.30 to 6.70 | > 6.00 | CCn1nc(C)cc1C(=O)Nc1nc2cc(C(N)=O)cc(C)c2n1C/C=C/Cn1c2ccc(C(N)=O)cc2c2cnc(-c3ccnn3CC)nc21 [Example 7, (E)-9-(4-(5-carbamoyl-2-(1-ethyl-3-methyl-1H-pyrazole-5-carboxamido)-7-methyl-1H-benzo[d]imidazol-1-yl)but-2-enyl)-2-(1-ethyl-1H-pyrazol-5-yl)-9H-pyrimido[4,5-b]indole-6-carboxamide] |
| 6.70 to 7.30 |  | CCn1nc(C)cc1C(=O)Nc1nc2cc(C(N)=O)cc(OCCCOC)c2n1C/C=C/Cn1c2nc(-c3cc(C)nn3CC)ncc2c2cc(C(N)=O)cc(OCCCOC(=O)NCCC(=O)O)c21 [Example 52, (E)-3-((3-(6-carbamoyl-9-(4-(5-carbamoyl-2-(1-ethyl-3-methyl-1H-pyrazole-5-carboxamido)-7-(3-methoxypropoxy)-1H-benzo[d]imidazol-1-yl)but-2-enyl)-2-(1-ethyl-3-methyl-1H-pyrazol-5-yl)-9H-pyrimido[4,5-b]indol-8-yloxy)propoxy)carbonylamino)propanoic Acid] |
| 6.70 to 7.30 |  | CCn1nc(C)cc1C(=O)Nc1nc2cc(C(N)=O)cc(OCCCOC)c2n1C/C=C/Cn1c2nc(-c3cc(C)nn3CC)ncc2c2cc(C(N)=O)cc(OCCOCCOCCC(=O)O)c21 [Example 53, (E)-3-(2-(2-(6-carbamoyl-9-(4-(5-carbamoyl-2-(1-ethyl-3-methyl-1H-pyrazole-5-carboxamido)-7-(3-methoxypropoxy)-1H-benzo[d]imidazol-1-yl)but-2-enyl)-2-(1-ethyl-3-methyl-1H-pyrazol-5-yl)-9H-pyrimido[4,5-b]indol-8-yloxy)ethoxy)ethoxy)propanoic Acid] |
| > 7.30 | > 6.70 | CCn1nc(C)cc1C(=O)Nc1nc2cc(C(N)=O)cc(C)c2n1C/C=C/Cn1c2nc(-c3cc(C)nn3CC)ncc2c2cc(C(N)=O)cc(OCCCN3CCOCC3)c21 [Example 11, (E)-9-(4-(5-carbamoyl-2-(1-ethyl-3-methyl-1H-pyrazole-5-carboxamido)-7-methyl-1H-benzo[d]imidazol-1-yl)but-2-enyl)-2-(1-ethyl-3-methyl-1H-pyrazol-5-yl)-8-(3-morpholinopropoxy)-9H-pyrimido[4,5-b]indole-6-carboxamide] |
| 6.70 to 7.30 | > 6.70 | CCn1nc(C)cc1C(=O)Nc1nc2cc(C(N)=O)cc(C)c2n1C/C=C/Cn1c2ccc(C(N)=O)cc2c2cnc(-c3cc(C)nn3CC)c(F)c21 [Example 23, (E)-5-(4-(5-carbamoyl-2-(1-ethyl-3-methyl-1H-pyrazole-5-carboxamido)-7-methyl-1H-benzo[d]imidazol-1-yl)but-2-en-1-yl)-3-(1-ethyl-3-methyl-1H-pyrazol-5-yl)-4-fluoro-5H-pyrido[4,3-b]indole-8-carboxamide] |
| 6.30 to 6.70 | > 6.00 | CCn1nc(C)cc1C(=O)Nc1nc2cc(C(N)=O)cc(C)c2n1C/C=C/Cn1c2ccccc2c2cnc(-c3cc(C)nn3CC)nc21 [Example 2, (E)-1-(4-(2-(1-ethyl-3-methyl-1H-pyrazol-5-yl)-9H-pyrimido[4,5-b]indol-9-yl)but-2-enyl)-2-(1-ethyl-3-methyl-1H-pyrazole-5-carboxamido)-7-methyl-1H-benzo[d]imidazole-5-carboxamide] |
